How the values were obtained:
Settings in all cases: synthetic library passage 3, intravenous, relative to wild-type AAV9
[1] = system: brain, spinal cord, and DRG of the NHPs; assay: NGS fold enrichment of synthetic library (passage 3) in NHPs, first cross-species screen; format: in vivo, cynomolgus macaques (Macaca fascicularis)
Summary of the method: (§1)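 Fold enrichment versus wild-type AAV9 was derived by NGS of RT-PCR-amplified RNA from nervous tissue, collected e.g. 28 days after IV dosing […]. The library (passage 3) was given to two NHPs aged 2-4 years and to 6-8-week BALB/c and C57Bl/6 mice (n=3 each).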

brain [2] = assay: NGS fold enrichment of synthetic library (passage 3) in BALB/c mice, first cross-species screen; format: in vivo
Summary of the method: as §1

brain [3] = assay: NGS fold enrichment of synthetic library (passage 3) in C57Bl/6 mice, first cross-species screen; format: in vivo
Summary of the method: as §1

[4] = RNA from spinal cord of NHPs, NGS
[5] = RNA from brain of BALB/c mice, NGS
[6] = RNA from brain of C57Bl/6 mice, NGS

Sequence | Fold enrichment over AAV9 in the brain of NHPs ([1]; RNA NGS, brain of NHPs) [fold] | Fold enrichment over AAV9 in the spinal cord of NHPs ([1]; RNA NGS, spinal cord of NHPs) [fold] | Fold enrichment over AAV9 in the brain of Mice (BALB/c) (brain [2]; RNA NGS, brain of BALB/c mice) [fold] | Fold enrichment over AAV9 in the brain of Mice (C57Bl/6) (brain [3]; RNA NGS, brain of C57Bl/6 mice) [fold] | Fold enrichment over AAV9 in the brain of NHPs ([1]; RNA from brain of NHPs, NGS) [fold] | Fold enrichment over AAV9 in the spinal cord of NHPs [1, 4] [fold] | Fold enrichment over AAV9 in the brain of Mice (BALB/c) (brain [2]; [5]) [fold] | Fold enrichment over AAV9 in the brain of Mice (C57Bl/6) (brain [3]; [6]) [fold]
GPLVNASSGQNQQT | 1.434 | 5.239 | 0.343 | 0.831 | – | – | – | –
GSGQNQQIPHVHQT | – | – | – | – | 1.409 | 0.768 | 0.218 | 0.576
GSGQNQQTLTASKE | – | – | – | – | 1.333 | 1.152 | 1.172 | 0.981
GVIVLHGSGQNQQT | 1.682 | 14.166 | 1.098 | 1.074 | – | – | – | –
GSGQLVSGLYNQQT | – | – | – | – | 1.325 | 0.000 | 0.733 | 0.842
GSGQNQQTMPQHKI | 1.097 | 2.394 | 0.197 | 0.479 | – | – | – | –
GSGQNQQTSHFPSA | – | – | – | – | 1.185 | 0.325 | 0.907 | 0.969
GSGLGRAPVQNQQT | 2.503 | 2.214 | 0.383 | 0.841 | – | – | – | –
GSGQNQQTMLGKPC | – | – | – | – | 1.125 | 0.047 | 0.992 | 1.090
GSGHAAISQQNQQT | 1.742 | 2.373 | 0.520 | 1.211 | – | – | – | –
GSGQMKDLHRNQQT | 1.014 | 1.068 | 0.506 | 0.587 | – | – | – | –
GSGERSISVQNQQT | – | – | – | – | 1.264 | 1.619 | 0.173 | 0.598
GSGHSVSGPQNQQT | 1.993 | 6.259 | 0.619 | 1.370 | – | – | – | –
GALVSPISGQNQQT | 1.912 | 1.051 | 0.347 | 0.640 | – | – | – | –
GSVFGVPSGQNQQT | 1.474 | 1.248 | 0.213 | 0.685 | – | – | – | –
GSGQNQQTALYNNT | – | – | – | – | 1.307 | 0.862 | 0.726 | 0.660
GSGQNQQALGSQRT | 1.695 | 1.934 | 0.562 | 1.419 | – | – | – | –
GSGQSSGRLINKQT | 2.055 | 28.135 | 0.277 | 0.543 | – | – | – | –
GHSFVNRSGQNQQT | 2.447 | 11.148 | 0.756 | 1.305 | – | – | – | –
GGRIVSLSGQNQQT | 1.766 | 4.936 | 0.847 | 1.161 | – | – | – | –
GSGQNQHSAPNSQT | 2.134 | 4.143 | 0.731 | 1.187 | – | – | – | –
GSGFHTDSRQNQQT | 1.748 | 4.384 | 0.575 | 7.344 | – | – | – | –
GSGQNQQHPSTQQT | – | – | – | – | 1.205 | 1.552 | 0.680 | 1.017
GSGKNQQRPGLDQT | 1.089 | 1.557 | 0.385 | 0.583 | – | – | – | –
GSGQARAHRGNQQT | 1.017 | 0.000 | 0.386 | 0.254 | – | – | – | –
GSGDSITGKQNQQT | 2.112 | 1.295 | 0.306 | 0.793 | – | – | – | –
